Patent US9918948B2, “Methods and compositions for treating symptoms associated with post-traumatic stress disorder using cyclobenzaprine” (TONIX PHARMA HOLDINGS LIMITED, priority 2009, dated 2018)
Like-named read-outs stand apart in the source and are kept apart here.

Key:
[1] = system: sleep disturbance in PTSD; conditions: administered at bedtime; cited from earlier work
PTSD symptoms [2] = conditions: 1 to 4 mg orally at bedtime, alone or with sertraline or prazosin; one to three months after the trauma
From the text: (§1) At this point the usual natural history of the disease has progressed to the point where patients typically experience recurrent nightmares associated with their traumatic events. […] In addition patients at this stage in the evolution of their disorder have a constellation of daytime symptoms consisting of hyperarousal, hypervigilance, exaggerated startle, and other signs of overactive vigilance behaviors. Also, at this point patients begin to engage in avoidant behaviors such that they actively avoided people and circumstances that might trigger memories of the traumatic event. Lastly, patients begin to experience daytime reexperiencing of their traumatic events in the form of flashbacks. […] These include hyperarousal, hypervigilance, exaggerated startle, and avoidant behavior.

PTSD symptoms [3] = conditions: 1 to 4 mg orally at bedtime, alone or with sertraline or prazosin; PTSD present for greater than three months
From the text: as §1, with “In patients with well-established PTSD that has been present for greater than three months. At” for “At”, “nightmares and daytime flashbacks” for “nightmares”, “with highly vivid memories of the” for “with their”, “traumatic event.” for “traumatic events.”

fibromyalgia patients = conditions: 120 fibromyalgia patients, 10 to 40 mg, 12-week period; cited from earlier work
PTSD symptoms [4] = conditions: 1 to 4 mg orally at bedtime, alone or with sertraline or prazosin, started within one week of the trauma

Row | SMILES | sleep [1] | daytime symptoms not associated with sleep (hyperarousal, hypervigilance, exaggerated startle, avoidant behavior) (PTSD symptoms [2]) | sleep associated symptomatology (nightmares, distress, insomnia, daytime fatigue, cognitive function) (PTSD symptoms [2]) | daytime symptoms not associated with sleep (hyperarousal, hypervigilance, exaggerated startle, avoidant behavior) (PTSD symptoms [3]) | sleep associated symptomatology (nightmares, distress, insomnia, daytime fatigue, cognitive function) (PTSD symptoms [3]) | pain score (fibromyalgia patients) | quality of sleep (fibromyalgia patients) | total number of tender points and muscle tightness (fibromyalgia patients) | avoiding behavior or hyperarousal symptoms (PTSD symptoms [4]) | daytime fatigue compared to untreated patients (PTSD symptoms [4]) | sleep quality compared to untreated patients (PTSD symptoms [4]) | frequency of nightmares or flashbacks (PTSD symptoms [4]; three-month interval)
1 | COc1cc2nc(N3CCN(C(=O)c4ccco4)CC3)nc(N)c2cc1OC [prazosin] | improves sleep | – | – | – | – | – | – | – | – | – | – | –
2 | CN(C)CCC=C1c2ccccc2C=Cc2ccccc21 [cyclobenzaprine, 3-(5H-dibenzo[a,d]cyclohepten-5-ylidene)-N,N-dimethyl-1-propanamine] | – | greatly reduced or eliminated | significant improvements | greatly reduced or eliminated | significant improvements | significantly improved | significantly improved | reduction | No avoiding behavior or hyperarousal symptoms develop | diminished | substantially better in quality | declines eventually approaching zero
